# Measurements from the supplement of paper PMC10307832.
# Key:
# Test in all cases: relative viability (nuclei count vs DMSO), 5 days (fraction); higher = more cells survive
# [1] = compound: CS(=O)(=O)N1CCN(Cc2cc3nc(-c4cccc5[nH]ncc45)nc(N4CCOCC4)c3s2)CC1 [Pictilisib] + Cc1nc(Nc2ncc(C(=O)Nc3c(C)cccc3Cl)s2)cc(N2CCN(CCO)CC2)n1 [Dasatinib] (partner 0.075 µM)
# Outline: (§1)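 Medians of duplicate plates are given as relative viability. That measure is the nuclei count in treated wells divided by the count in vehicle wells. Counts were taken on 4× images of lung cancer cell lines in 1536-well plates, 5 days after pin-tool dosing the day after seeding with one drug alone or a fixed anchor-drug dose plus five library-drug doses (not always all listed) in √10 steps.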
# [2] = compound: NC1(c2ccc(-c3nc4ccn5c(=O)[nH]nc5c4cc3-c3ccccc3)cc2)CCC1 [MK-2206] + CC1(C)CCC(c2ccc(Cl)cc2)=C(CN2CCN(c3ccc(C(=O)NS(=O)(=O)c4ccc(N[C@H](CCN5CCOCC5)CSc5ccccc5)c(S(=O)(=O)C(F)(F)F)c4)cc3)CC2)C1 [Navitoclax] (partner 0.5 µM)
# Outline: as §1
# [3] = compound: NC1(c2ccc(-c3nc4ccn5c(=O)[nH]nc5c4cc3-c3ccccc3)cc2)CCC1 [MK-2206] + C[C@]1(O)C[C@@H](c2nc(-c3ccc4ccc(-c5ccccc5)nc4c3)c3c(N)nccn32)C1 [Linsitinib] (partner 1 µM)
# Outline: as §1
# [4] = compound: NC1(c2ccc(-c3nc4ccn5c(=O)[nH]nc5c4cc3-c3ccccc3)cc2)CCC1 [MK-2206] + CC(=O)c1c(C)c2cnc(Nc3ccc(N4CCNCC4)cn3)nc2n(C2CCCC2)c1=O [Palbociclib] (partner 0.5 µM)
# Outline: as §1
# [5] = compound: NC1(c2ccc(-c3nc4ccn5c(=O)[nH]nc5c4cc3-c3ccccc3)cc2)CCC1 [MK-2206] + Nc1ncn([C@H]2C[C@H](O)[C@@H](CO)O2)c(=O)n1 [Decitabine] (partner 2 µM)
# Outline: as §1
Cell Line,relative viability ([1]; first compound 0.02 µM),relative viability ([1]; first compound 0.06325 µM),relative viability ([1]; first compound 0.6325 µM),relative viability ([1]; first compound 2 µM),relative viability ([2]; first compound 0.01 µM),relative viability ([2]; first compound 0.03162 µM),relative viability ([2]; first compound 0.3162 µM),relative viability ([2]; first compound 1 µM),relative viability ([3]; first compound 0.01 µM),relative viability ([3]; first compound 0.03162 µM),relative viability ([3]; first compound 0.3162 µM),relative viability ([3]; first compound 1 µM),relative viability ([4]; first compound 0.01 µM),relative viability ([4]; first compound 0.03162 µM),relative viability ([4]; first compound 0.3162 µM),relative viability ([4]; first compound 1 µM),relative viability ([5]; first compound 0.01 µM),relative viability ([5]; first compound 0.03162 µM),relative viability ([5]; first compound 0.3162 µM),relative viability ([5]; first compound 1 µM)
NCI-H2023,0.556,0.509,0.182,0.0932,0.985,1.06,0.895,0.716,0.642,0.586,0.438,0.312,0.39,0.347,0.297,0.208,0.247,0.225,0.243,0.211
Calu-6,,,,,0.937,0.9,0.861,0.828,,0.961,0.963,0.926,,,,,,,,
SW 900,0.577,0.547,0.264,0.255,,,,,,,,,0.582,,0.532,0.423,0.449,,0.399,0.391
HOP-62,0.627,0.573,0.43,0.26,0.909,1.24,1.02,1.1,0.783,0.757,1.01,0.998,0.407,0.468,0.452,0.485,0.202,0.227,0.237,0.255
H3255,0.447,0.31,0.252,0.213,0.519,0.579,0.439,0.312,0.975,0.924,0.847,0.726,0.313,0.302,0.283,0.288,0.611,0.628,0.51,0.502
NCI-H1734,0.451,0.424,0.281,0.182,0.848,0.85,0.584,0.681,0.816,0.934,0.632,0.584,0.238,0.369,0.28,0.264,0.527,0.516,0.469,0.447
SK-MES-1,0.304,0.308,0.128,0.117,1.29,1.2,1.01,1.1,1.03,1.1,1.05,1.06,0.327,0.296,0.289,0.256,0.383,0.4,0.371,0.321
NCI-H1792,0.811,0.795,0.417,0.228,0.603,0.706,0.655,0.578,0.573,0.596,0.549,0.636,0.631,0.751,0.609,0.653,0.6,0.577,0.581,0.458
EKVX,0.534,0.414,0.303,0.16,0.859,1.05,0.934,0.65,0.96,1.09,0.846,0.801,0.542,0.458,0.363,0.352,0.359,0.339,0.324,0.322
EPLC-272H,0.304,0.323,0.216,0.142,0.915,1.18,,1.08,1.17,1.18,,1.15,0.32,0.287,0.315,0.328,0.392,0.345,0.364,0.392
LK-2,0.278,0.324,0.185,0.185,0.837,0.938,0.684,0.61,0.511,0.641,0.627,0.699,0.605,0.881,0.68,0.457,0.36,0.355,0.286,0.12
CAL-12T,0.352,0.3,0.141,0.0923,0.963,1.32,1.22,1.14,0.742,0.877,0.761,0.739,0.383,0.277,0.543,0.411,,,,
NCI-H322M,0.226,0.253,0.271,0.243,1.14,1.13,1.25,1.1,0.912,0.949,0.869,0.942,0.51,0.469,0.519,0.527,0.677,0.735,0.787,0.624
NCI-H1650,0.406,0.277,0.174,0.16,1.11,1,1.06,1.02,,,,,0.291,0.334,0.331,0.356,0.465,0.419,0.441,0.469
NCI-H2342,0.263,0.305,0.289,0.267,,,,,,,,,0.58,0.51,0.469,0.473,0.687,0.792,0.787,0.629
SW 1573,0.485,0.524,0.288,0.161,0.876,0.937,0.714,0.737,0.751,0.824,0.665,0.592,0.571,0.335,0.294,0.298,0.505,0.43,0.502,0.453
NCI-H2405,0.231,0.217,0.189,0.168,0.838,1.06,0.83,0.779,0.878,1.09,0.878,0.71,0.512,0.534,0.532,0.481,0.766,0.788,0.72,0.74
LCLC-103H,0.457,0.547,0.367,0.142,,,,,1.08,1.07,1,1.12,0.496,0.499,0.461,0.462,0.721,0.755,0.735,0.691
HCC-44,,,,,0.868,0.962,0.868,0.818,0.662,0.652,0.556,0.445,0.918,0.938,0.974,0.946,0.959,0.968,0.934,0.908
RERF-LC-KJ,0.802,0.811,0.687,0.451,0.836,1.28,0.708,0.69,0.848,0.864,0.9,0.789,0.954,1.13,1,1.06,0.788,0.677,0.599,0.62

Cell Line,relative viability ([1]; first compound 0.02 µM),relative viability ([1]; first compound 0.06325 µM),relative viability ([1]; first compound 0.6325 µM),relative viability ([1]; first compound 2 µM),relative viability ([2]; first compound 0.01 µM),relative viability ([2]; first compound 0.03162 µM),relative viability ([2]; first compound 0.3162 µM),relative viability ([2]; first compound 1 µM),relative viability ([3]; first compound 0.01 µM),relative viability ([3]; first compound 0.03162 µM),relative viability ([3]; first compound 0.3162 µM),relative viability ([3]; first compound 1 µM),relative viability ([4]; first compound 0.01 µM),relative viability ([4]; first compound 0.03162 µM),relative viability ([4]; first compound 0.3162 µM),relative viability ([4]; first compound 1 µM),relative viability ([5]; first compound 0.01 µM),relative viability ([5]; first compound 0.03162 µM),relative viability ([5]; first compound 0.3162 µM),relative viability ([5]; first compound 1 µM)
NCI-H1975,0.368,0.242,0.105,0.144,1.05,0.969,0.938,0.787,1.02,0.81,0.679,0.72,0.604,0.529,0.49,0.168,0.387,0.346,0.36,0.323
IA-LM,,,,,0.724,0.835,0.801,0.669,0.55,0.632,0.597,0.409,,,,,,,,
LCLC-97TM1,0.8,0.919,0.781,0.602,0.522,0.499,0.404,0.361,0.219,0.171,0.177,0.174,0.264,0.233,0.191,0.198,0.242,0.259,0.26,0.206
ABC-1,0.664,0.55,0.522,0.473,,,,,0.799,0.742,0.881,0.868,0.809,0.669,0.641,0.605,1.19,1.25,1.06,1.02
EBC-1,,,,,0.455,0.385,0.23,0.131,0.795,0.951,0.681,0.557,,,,,,,,
NCI-H358,0.147,0.148,0.123,0.0945,,,,,0.79,0.707,0.542,0.602,0.16,0.124,0.138,0.141,0.216,0.208,0.201,0.217
ChaGo-K-1,0.628,0.682,0.517,0.384,1.3,1.17,0.816,0.454,,,,,0.961,0.98,0.937,0.932,0.533,0.511,0.514,0.526
NCI-H2228,0.654,0.433,0.317,0.167,1.12,0.724,0.678,0.585,0.546,0.677,0.303,0.264,0.586,0.848,0.487,0.725,,,,
NCI-H650,0.498,0.497,0.41,0.333,,,,,0.809,1.04,0.798,0.791,0.292,0.328,0.311,0.309,0.344,0.306,0.347,0.284
A549,,,,,1.19,1.08,1.11,0.991,0.657,0.651,0.574,0.512,,,,,0.304,0.26,0.24,0.294
NCI-H1563,0.431,0.39,0.356,0.316,,,,,1.12,1.22,0.797,0.742,,,,,,,,
NCI-H1703,,,,,1.15,0.961,0.621,0.776,1.01,1.03,0.544,0.748,,,,,,,,
NCI-H1299,,,,,1.09,1.05,1.06,1.05,0.947,1.08,0.977,0.965,,,,,,,,
NCI-H661,0.942,0.878,0.439,0.304,,,,,0.583,0.725,0.665,0.541,0.428,0.42,0.354,0.349,0.538,0.574,0.591,0.528
NCI-H522,0.75,0.984,0.79,0.664,,,,,,,,,1.04,1.12,1.05,1.09,0.701,0.677,0.612,0.654
NCI-H1648,,,,,,,,,,,,,0.229,0.269,0.301,0.331,0.405,0.574,0.483,0.575
NCI-H2170,0.544,0.754,0.522,0.343,0.65,0.485,0.546,0.512,,,,,0.4,0.391,0.354,0.343,0.482,0.462,0.462,0.443
NCI-H1623,0.55,0.487,0.472,0.251,,,,,,,,,,,,,,,,
NCI-H596,0.569,0.537,0.325,0.207,0.948,1.06,0.756,0.669,1.14,1.11,0.846,0.734,,,,,1.03,1.03,0.99,0.914
